Laboratory results as given in PubChem BioAssay (NCI).
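96-well plates; 48 h exposure; 5 concentrations. Endpoints by linear interpolation between flanking doses. Not reached: highest tested concentration assigned. The concentration for 50% growth inhibition is given as GI50. TGI: total growth inhibition.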

Assays:
Assay in all cases: DTP human tumour cell line panel, 48 h
U251 CNS = system: U251 CNS
TK-10 renal = system: TK-10 renal
LOX IMVI melanoma = system: LOX IMVI melanoma
NCI-H460 lung = system: NCI-H460 lung
EKVX NSCLC = system: EKVX NSCLC
SK-MEL-28 melanoma = system: SK-MEL-28 melanoma
UACC-62 melanoma = system: UACC-62 melanoma
SF-295 CNS = system: SF-295 CNS
UO-31 renal = system: UO-31 renal
BT-549 breast = system: BT-549 breast

Row | Structure (SMILES) | TGI (U251 CNS) | TGI (TK-10 renal) | TGI (LOX IMVI melanoma) | TGI (NCI-H460 lung) | TGI (EKVX NSCLC) | TGI (SK-MEL-28 melanoma) | TGI (UACC-62 melanoma) | TGI (SF-295 CNS) | TGI (UO-31 renal) | GI50 (TK-10 renal) | GI50 (EKVX NSCLC) | GI50 (SK-MEL-28 melanoma) | GI50 (UO-31 renal) | GI50 (BT-549 breast) | TGI (BT-549 breast) | GI50 (U251 CNS) | GI50 (NCI-H460 lung) | GI50 (UACC-62 melanoma) | GI50 (SF-295 CNS) | GI50 (LOX IMVI melanoma)
1 | COC(=O)C(C(=O)C(=O)Nc1ccc([N+](=O)[O-])cc1)c1nc2cc(C)c(C)cc2[nH]c1=O (stereo not given) | > 100 µM | > 100 µM | > 100 µM | > 100 µM | > 100 µM | > 100 µM | > 100 µM | > 100 µM | > 100 µM |  |  |  |  |  |  |  |  |  |  | 
2 | N=C(N)c1ccc(-c2ccc(-c3ccc(Cl)c(Cl)c3)o2)nc1 |  | 3.77 µM |  |  | 3.76 µM | 3.34 µM |  |  | 2.97 µM | 2.03 µM | 1.86 µM | 1.76 µM | 1.5 µM | 1.61 µM | 3.15 µM |  |  |  |  | 
3 | O=C(Nc1ccc(Cl)cc1F)c1cc(Cl)ccc1O | > 100 µM | > 31.2 µM |  |  | 8.27 µM | 1.84 µM | 1.11 µM | 2.67 µM | 1.92 µM | 1.31 µM | 0.891 µM | 0.364 µM | 0.208 µM | 0.379 µM | 2.04 µM | 0.466 µM | 0.44 µM | 0.279 µM | 0.99 µM | 
4 | C[CH2][Sn]([Cl])([CH2]C)[CH2]C | 2.97 µM | 6.94 µM | 2.06 µM | 5.44 µM | 11.6 µM | 11.6 µM | 11.5 µM | 3.92 µM | 4.05 µM | 3.02 µM | 1.06 µM | 1.67 µM | 1.65 µM |  |  | 0.771 µM | 1.67 µM | 0.515 µM | 1.41 µM | 0.386 µM
5 | CC(=O)OC1CC(C)c2c(Cl)ncnc21 (stereo not given) |  | > 100 µM | > 100 µM | > 100 µM |  | > 100 µM | > 100 µM |  | > 100 µM | > 100 µM |  | > 100 µM | > 100 µM | > 100 µM | > 100 µM |  | > 100 µM | > 100 µM |  | > 100 µM
6 | O=c1nc(-c2ccccc2)scc1-c1ccccc1 | > 100 µM | > 100 µM |  | > 100 µM | > 100 µM | > 100 µM | > 100 µM | > 100 µM | > 100 µM |  |  |  |  |  |  |  |  |  |  | 
7 | Cc1cc2c(=O)c3ccccc3oc2c(C#N)c1C | > 100 µM | > 100 µM |  | > 100 µM | > 100 µM | > 100 µM |  | > 100 µM | > 100 µM |  |  |  |  |  |  |  |  |  |  | 
8 | C/C=C/C=C\C(=O)C1c2cccc(O)c2C(=O)c2c(O)cc(C)cc21 (stereo not given) | 1.63 µM | 3.76 µM | 3.38 µM | 1.47 µM | 13.4 µM | 3.51 µM |  | 2.25 µM | 3.08 µM |  |  |  |  |  |  |  |  |  |  | 
9 | O=c1[nH]c(=O)n(C2OC(CO)C(O)C2O)cc1OCc1ccccc1 (stereo not given) | > 72.2 µM | > 100 µM | > 31.6 µM | > 100 µM | > 100 µM | > 100 µM | > 100 µM | > 100 µM | > 100 µM |  |  |  |  |  |  |  |  |  |  | 
10 | C[C@]12CC/C(=N\OC(=O)Nc3ccccc3)C=C1CC[C@@H]1C2CC[C@@]2(C)C1CC[C@@H]2OC(=O)Nc1ccccc1 (stereo not given in full) | > 100 µM | > 100 µM | > 100 µM | > 100 µM | > 100 µM |  | > 100 µM | > 100 µM | > 100 µM |  |  |  |  |  |  |  |  |  |  | 
11 | Nc1nc(Cl)nc2c1ncn2C1CCC(COP(=O)(O)OP(=O)(O)OP(=O)(O)O)O1 (stereo not given) | > 100 µM | > 100 µM | 78.5 µM | > 100 µM | > 100 µM | 54.1 µM | 47.9 µM | 58.4 µM | 48.2 µM |  |  |  |  |  |  |  |  |  |  | 
12 | CCC[CH2][Ge]([CH2]CCC)([CH2]CCC)[O]C(=O)C(OC(C)=O)c1ccccc1 (stereo not given) | 20.2 µM | 54.3 µM | 9.14 µM | 20 µM | 9.37 µM | 22.1 µM | 15.6 µM | 23.3 µM | 18.5 µM | 8.06 µM |  | 8.12 µM | 1.5 µM |  |  | 1.19 µM | 1.24 µM | 1.64 µM | 4.02 µM | 0.535 µM
13 | O=C1c2ccccc2CCC1(Br)Br | 15.9 µM | 2.88 µM | 2.9 µM | 18.7 µM |  | 4.65 µM | 4.54 µM | 28 µM | 2.6 µM | 1.5 µM |  | 2.08 µM | 1.27 µM | 2 µM | 4.96 µM | 5.67 µM | 5.28 µM | 1.96 µM | 14.6 µM | 1.48 µM
14 | CCOC1=C2C(C)(CCC3[C@@]4(C)C=CC(=O)C(C)(C)C4CC(O)[C@@]23C)C(c2ccoc2)C1=O (stereo not given in full) | 34.8 µM | 61.3 µM | 29.1 µM | 28.4 µM | 67.7 µM | 30.5 µM | 57.7 µM | 46.5 µM | 29.1 µM |  |  |  |  |  |  |  |  |  |  | 
15 | CCOC(=O)/C(=C/c1ccc(Cl)cc1)N(CC)CC | > 100 µM | > 100 µM | > 100 µM | > 100 µM | > 100 µM | > 100 µM | > 100 µM | > 100 µM | > 100 µM |  |  |  |  |  |  |  |  |  |  | 
16 | COc1cccc(N2C(=O)[C@H]3[C@H]4CC(C(C)(C)C)CC[C@H]4c4c([nH]c5ccccc45)[C@H]3C2=O)c1 (stereo not given in full) |  | 28.8 µM | 32.7 µM |  | 40.6 µM | 35.6 µM | 28.3 µM | 29.2 µM | 35.5 µM |  |  |  |  |  |  |  |  |  |  | 
17 | N#CC(C(=O)C(=O)Nc1ccc(Cl)c(Cl)c1)c1ccc(Cl)cc1 (stereo not given) | > 100 µM | > 100 µM | 31.1 µM | 96.7 µM | > 100 µM | > 100 µM | > 100 µM | > 100 µM | > 100 µM |  |  |  |  |  |  |  |  |  |  | 
18 | Cc1cccc2c1ccc1c3occ(C)c3c(=O)oc21 | > 100 µM | > 100 µM | > 100 µM | > 100 µM | > 100 µM | > 100 µM | > 100 µM | > 100 µM | > 100 µM | > 100 µM | 76.6 µM | > 100 µM | > 100 µM |  |  | > 100 µM | 93.1 µM | > 100 µM | > 100 µM | 80.3 µM
19 | COc1ccc2c([nH]c3cc(O)c(C)cc32)c1CC=C(C)C | 13.7 µM |  | 7.8 µM | 14.1 µM |  | > 25 µM | > 25 µM |  | > 25 µM |  |  |  | 14.3 µM |  |  | 5.89 µM | 5.56 µM | 9.11 µM |  | 4.36 µM
